Data reported in patent US9802880B2, “Cannabigerol derivatives” (VIVACELL BIOTECHNOLOGY ESPAÑA S.L., priority 2014, dated 2017).

Experiments:
N2a cells = test: Neuroprotection assay, glutamate-induced excitotoxicity in N2a cells; format: cell-based; conditions: 1 h pre-incubation, then 5 mM glutamate 24 h, FIG. 5
Method: N2a cells were pre-incubated for 1 h with compounds (II) to (V) and (XII) at the indicated concentrations. Then, cells were treated for 24 h with 5 mM glutamate to induce excitotoxicity, or cytotoxicity in neuronal cells induced by neurotransmitters. Cell viability was quantified by MTT assay. […] Control was set as 100% and data were referred to that value.
Cultured N2A cells were pre-incubated with the compounds II, III, IV, V and XII at the indicated concentrations for 1 h and then treated with 5 mM glutamate to induce excitotoxicity during 24 h (FIG. 5). Cytotoxicity was determined by the MTT method as described in example 3. Results are shown as mean±S.D. from at least three independent experiments, and expressed as percentage of cell viability against the control sample (−). Control was set as 100% and data were referred to that value.

3NP-lesioned mice = test: Huntington's disease 3NP model, behavioral score; format: in vivo, C57BL/6 mice; conditions: 10 mg/kg i.p., four injections, FIG. 9
Method: Mice were subjected to behavioral tests for determining their neurological status after the treatment with compounds I (10 mg/kg) (A), III (10 mg/kg) (B) and XII (10 mg/kg) (C). Hind limb clasping, Locomotor activity, Hind limb dystonia and Truncal Dystonia were rated from 0 to 2 based on severity: a score of 0 typically indicates normal function and 2 seriously affected. Values are expressed as means±SEM for 8 animals per group.
Lesions of the striatum were induced with 3-NP in adult (16 week old; 30 g) male C57BL/6 mice (Harlan Ibérica, Barcelona, Spain). To this end, mice were subjected to seven intraperitoneal (i.p.) injections of 3NP (one injection each 12 hours) at a dose of 50 mg/kg (prepared in phosphate-buffered saline) for 3 days. These animals and their respective non-lesioned controls were used for pharmacological studies with compounds CBG-Q (compound I) and with compounds III and XII (FIG. 9). At least 6-8 animals were used per experimental group. Treatments consisted of four i.p. injections of the compounds at the indicated doses (one injection each 24 hours), or vehicle (DMSO 0.2%, BSA 5% in PBS) 30 min before the injections of 3NP. All animals were euthanized 12 hours after the last 3NP injection. Once euthanized, animals were dissected and their brains were rapidly removed. The right hemisphere was used to dissect the striatum, which was quickly frozen in RNAlater (Sigma-Aldrich, Germany) to analyzed inflammatory markers were by Real Time PCR. The left hemisphere was fixed in fresh 4% paraformaldehyde (in 0.1M phosphate buffered-saline) for 48 hours at 4° C. and embedded in paraffin wax for histological analysis. Mice were subjected to behavioral tests for determining their neurological status. We evaluated the general locomotor activity, the hindlimb clasping and dystonia, and the truncal dystonia. All behavioral tests were conducted prior to drug injections to avoid acute effects of the compounds under investigation.

6-OHDA-lesioned mice = test: Parkinson's disease 6-OHDA model, rotarod and actimeter; format: in vivo, C57BL/6 mice; conditions: 6-OHDA mice, chronic intraperitoneal treatment 10 mg/ml, 14 days, FIG. 13
Method: C57BL/6 mice were unilaterally injected intracerebroventricullarly with 6-hydroxydopamine (6-OHDA) or saline (control mice) and subjected to chronic intraperitoneal treatment with compound III (10 mg/ml) or vehicle (14 days), starting 16 h after the 6-OHDA injection. Motor coordination was evaluated by rotarod performance and motor activity was evaluated using a computer-aided actimeter. Values are expressed as means±SEM for 6 animals per group.
C57BL/6 mice pretreated intracerebroventricularly (i.c.v.) were anesthetized with an intraperitoneal (i.p.) injection of 200 mg′kg of 2,2,2-tribromoethanol (Sigma-Aldrich) and placed in a stereotaxic frame with a mouse adapter (David Kopf Instruments, Tujunga, Calif., USA). […] Motor coordination was evaluated in the rotarod test (Ugo Basile, Rome, Italy) at crescent speed. […] The latency to fall off the rod was measured on consecutive days in lesioned mice following the compound III administration or vehicle control. Motor activity (ambulatory activity, mean velocity, resting time, fast movements and number of rearings) was evaluated using a computer-aided actimeter (FIG. 13).

CCCCCC1=C(NCC)C(=O)C(C/C=C(\C)CCC=C(C)C)=C(O)C1=O [Compound III, 6-(3,7-dimethyl-octa-2,6-dienyl)-5-hydroxy-3-pentyl-2-ethylamino-[1,4]benzoquinone]
protection from glutamate-induced cytotoxicity (cell viability, MTT) (N2a cells): protect neuronal cells from glutamate-induced apoptosis
clinical symptoms induced by 3-NP intoxication (hind limb clasping, locomotor activity, hind limb dystonia, truncal dystonia) (3NP-lesioned mice): clearly alleviates such symptomatology
motor symptoms (ambulatory activity, mean velocity, resting time, fast movement, number of rearing, rotarod performance) (6-OHDA-lesioned mice): almost completely suppressed
PPARg transactivation (luciferase activity, fold induction over untreated cells) (PPARg): most active compounds
